Assay results published in patent US6420563B1, “Small molecule modulators of G protein-coupled receptor six” (Arena Pharmaceuticals, Inc., priority 1998, dated 2002).
Read-outs that look alike come from different tables or passages of the source.

Tests used:
GPR6 = biological target: T1, GPR6 (Homo sapiens, UniProt P46095); assay: membrane-based cyclic AMP confirmation assay (Example 4C); assay type: biochemical; details: mean +/- standard deviation (number of assays in brackets); read-out: IC50 Values Cyclic AMP Assay Example 4C
T1 construct: expressed in transfected cells; 293 cells are used elsewhere
T1 sequence (P46095 whole entry): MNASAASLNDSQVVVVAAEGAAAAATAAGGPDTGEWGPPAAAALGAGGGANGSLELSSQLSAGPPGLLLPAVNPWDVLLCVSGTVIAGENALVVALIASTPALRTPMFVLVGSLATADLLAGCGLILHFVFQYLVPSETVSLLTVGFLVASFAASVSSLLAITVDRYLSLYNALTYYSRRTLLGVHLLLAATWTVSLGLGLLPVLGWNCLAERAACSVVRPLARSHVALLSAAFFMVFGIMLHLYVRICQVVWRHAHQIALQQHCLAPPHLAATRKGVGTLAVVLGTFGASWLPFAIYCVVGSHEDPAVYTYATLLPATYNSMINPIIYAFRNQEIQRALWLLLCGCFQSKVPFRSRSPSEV
Text: Using an independent assay approach to provide confirmation of a directly identified candidate compound as set forth above, it is preferred that a confirmation assay then be utilized. In this case, the preferred confirmation assay is membrane-based cyclic AMP (cAMP) assay.
A modified Flash Plate™ Adenylyl Cyclase kit (New England Nuclear; Cat. No. SMP004A) was utilized for confirmation of candidate compounds directly identified as inverse agonists and agonists to endogenous, constitutively activated orphan GPCRs in accordance with the following protocol.
Transfected stable cells were harvested approximately three days after transfection. Membranes were prepared by homogenization of suspended cells in buffer containing 20 mM HEPES, pH 7.4 and 10 mM MgCl2. Homogenization was performed on ice using a Brinkman Polytron™ for approximately 10 seconds. The resulting homogenate was centrifuged at 20,000 rpm for 20 minutes at 4° C. The resulting pellet was then resuspended in buffer containing 20 mM HEPES, pH 7.4 and 0.1 mM EDTA, homogenized for 10 seconds, followed by centrifugation at 20,000 rpm for 20 minutes at 4° C. The resulting pellet can be stored at −80° C. until utilized. On the day of direct identification screening, the membrane pellet is slowly thawed at room temperature, resuspended in buffer containing 20 mM HEPES, pH 7.4, 100 mM NaCl and 10 mM MgCL2, to yield a final protein concentration of 0.60 mg/ml (the resuspended membranes are placed on ice until use).
Candidate compounds identified as per above (if frozen, thawed at room temperature) were added to plate wells (3 μl/well; 12 μM final assay concentration), together with 50 μl Membrane Protein (30 μg/well) and 50 μl of Assay Buffer. This admixture was then incubated for 30 minutes at room temperature, with gentle shaking.
Following the incubation, 100 μl of Detection Buffer was added to each well, followed by incubation for 2-20 hours. Plates were subsequently aspirated and then counted in a Wallac MicroBeta™ plate reader using “Prot. #31” (as per manufacturer instructions).

GPR6:Gsα-Fusion Protein = biological target: T2, GPR6:Gsα-Fusion Protein (Homo sapiens, UniProt P46095); assay: [35S]GTPγS membrane binding assay (Example 4A); assay type: biochemical
T2 construct: expressed in transfected cells
T2 sequence (P46095 with tags, fused parts or gaps): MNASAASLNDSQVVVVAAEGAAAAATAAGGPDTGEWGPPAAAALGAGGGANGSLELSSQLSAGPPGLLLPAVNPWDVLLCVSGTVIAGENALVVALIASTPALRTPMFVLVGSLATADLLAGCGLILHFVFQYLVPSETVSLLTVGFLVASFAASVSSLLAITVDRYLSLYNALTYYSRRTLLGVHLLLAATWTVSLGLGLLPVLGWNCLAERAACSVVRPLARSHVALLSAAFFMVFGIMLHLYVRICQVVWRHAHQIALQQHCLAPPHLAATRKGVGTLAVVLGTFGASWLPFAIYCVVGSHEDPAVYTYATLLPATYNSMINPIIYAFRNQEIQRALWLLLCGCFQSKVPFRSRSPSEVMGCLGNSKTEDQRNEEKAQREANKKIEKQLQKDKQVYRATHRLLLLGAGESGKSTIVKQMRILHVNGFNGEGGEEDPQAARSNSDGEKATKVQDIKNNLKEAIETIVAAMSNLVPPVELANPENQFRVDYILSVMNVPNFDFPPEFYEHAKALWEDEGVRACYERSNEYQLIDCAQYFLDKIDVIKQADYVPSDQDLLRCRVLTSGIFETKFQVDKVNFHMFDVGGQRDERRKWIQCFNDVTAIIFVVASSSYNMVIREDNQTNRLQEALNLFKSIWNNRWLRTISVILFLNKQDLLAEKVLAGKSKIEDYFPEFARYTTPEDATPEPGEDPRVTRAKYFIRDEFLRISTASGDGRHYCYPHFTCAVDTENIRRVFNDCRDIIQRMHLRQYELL
Protocol: The assay plates were then centrifuged at 400 rpm for 15 minutes at room temperature and then subsequently aspirated and counted in a scintillation counter.
Membranes expressing the GPCR6:Gsα-Fusion Protein (see Example 2) and for use in the direct identification of candidate compounds as inverse agonists, agonists or partial agonists were prepared as follows:
All materials were kept on ice throughout the procedure. Firstly, the media was aspirated from a confluent monolayer of cells, followed by rinse with 10 ml cold PBS, followed by aspiration. Thereafter, 5 ml of membrane Scrape Buffer was added to scrape cells; this was followed by transfer of cellular extract into 50 ml centrifuge tubes (centrifuged at 20,000 rpm for 17 minutes at 4° C.). Thereafter, the supernatant was aspirated and the pellet was resuspended in 30 ml Membrane Wash Buffer followed by centrifuge at 20,000 rpm for 17 minutes at 4° C. The supernatant was then aspirated and the pellet resuspended in Binding Buffer. This was then homogenized using a Brinkman polytron™ homogenizer (15-20 second bursts until the all material was in suspension). This is referred to herein as “Membrane Protein”.
Candidate compounds (Tripos, Inc., St. Louis, Mo.) were received in 96-well plates (these can be frozen at −80° C.). Membrane Protein (or membranes with expression vector excluding the GPR6:Gsα-Fusion Protein, as control), were homogenized briefly until in suspension. Protein concentration was then determined using the Bradford Protein Assay set forth above. […] Thereafter, 100 ul GDP Buffer was added to each well of a Wallac Scintistrip™ (Wallac). A 5 ul pin-tool was then used to transfer 5 ul of a candidate compound into such well (i.e., 5 ul in total assay volume of 200 ul is a 1:40 ratio such that the final screening concentration of the candidate compound is 10 uM). Again, to avoid contamination, after each transfer step the pin tool was rinsed in three reservoirs comprising water (1×), ethanol (1×) and water (2×)—excess liquid should be shaken from the tool after each rinse and dried with paper towels and kimwipes™. Thereafter, 50 ul of Membrane Protein was added to each well (a control well comprising membranes without the GPCR Fusion Protein is also utilized), and pre-incubated for 5-10 minutes at room temperature (the plates were covered with foil in that the candidate compounds obtained from Tripos are light sensitive). Thereafter, 50 ul of [^35S]GTPγS (0.6 nM) in Binding Buffer was added to each well, followed by incubation on a shaker for 60 minutes at room temperature (again, in this example, plates were covered with foil). The assay was then stopped by spinning of the plates at 4000 RPM for 15 minutes at 22° C. The plates were then aspirated with an 8 channel manifold and sealed with plastic plate covers. The plates were then read on a Wallac 1450 using setting “Prot. #37” (as per manufacturer instructions).
The initial or “primary” screen designed to directly identify, e.g., human GPR6 receptor inverse agonists, consisted of the membrane-based GTPγS binding assay of Example 4A utilizing membranes prepared from 293 stable cells. Candidate compounds directly identified as inhibiting receptor-mediated increases in GTPγS as set forth below were considered active “leads”.
It is preferred that following such direct identification, IC50 (inverse agonist) or EC50 (agonist) values be determined; those having ordinary skill in the art are credited with utilizing IC50 and EC50 assay protocols of choice. FIG. 4 provides a representative IC50 curve for compound ARE112 using the assay protocol of Example 4A.

[1] = Food/water intake and body weight in 24-hour food deprived rats, oral gavage (PO); assay type: in vivo, rat; details: for water drunk (FIG. 10B): comparable to vehicle; for body weight gain (FIG. 10C): vehicle about 19.5 grams
Protocol: Based upon the in vivo data developed, oral bioavailability of compound ARE112 was determined. The compound was administered by oral gavage at doses ranging from 6.75 to 54 mg/kg. The data presented in FIGS. 9A and 9B support the conclusion that oral administration of ARE112 also decreases food intake in both food-deprived and non-food deprived rats. […] In FIG. 9A, rats were deprived 24 hours prior to oral administration of the compound. In this assay, the vehicle-treated rats at 2.5 hours consumed […] of food while injected rats; particularly rats administered with 27 and 54 mg/kg of ARE 112, ate about 6 and 4 grams, respectively. […] (See, FIG. 9A).
Several other GPR6 inverse agonists were also assessed under 24-hour food deprived conditions, with PO administration. The analogs listed below were tested at 200 μmol/kg, which is equivalent to 54 mg/kg. In addition, ARE114 was also assessed at […]. Data are summarized below in Table C:
In a second assay, tested under the same conditions, several other analogs were assessed at 100 μmol/kg.
In FIG. 10, rats were deprived 24 hours prior to oral administration of the compound. In this assay, analogs ARE130, ARE135, ARE136, and ARE140, were administered at a dose of 100 μmol/kg. Three analogs, particularly, ARE130, ARE136 and ARE140 evidenced a slow intake of food (e.g., about 1 to 1.5 grams every two hours) over an eight hour period post-administration; while the vehicle rat consumed about 2 to 2.5 grams food every two hours. Similar to the vehicle rat, analog ARE135, an opened ring structure, evidenced that over an eight hour period post-administration the rats increasingly consumed about 2.5 grams every two hours. (See, FIG. 10A). Furthermore, the body weight of the vehicle rat and administered rats with analog ARE135 gained about 19.5 grams. On the other hand, the closed ring structures evidenced a decrease in body weight gain as follows: ARE112-6 grams, ARE130-9 grams, ARE136-11 grams and ARE140-14 grams. See, FIG. 10C.

[2] = mean +/- standard deviation (number of assays in brackets), read-out: IC50 Values GTP Assay Example 4A
[3] = 200 μmol/kg PO, Table C, vehicle 14.5
[4] = 200 μmol/kg PO, Table C, vehicle 20.3
[5] = 200 μmol/kg PO, Table C, vehicle 22.9
[6] = mean +/- SD (number of assays), read-out: IC50 Values (Table E, GTP Assay of Example 4A)
[7] = 100 μmol/kg PO, second assay, Table D, vehicle 14.0
[8] = 100 μmol/kg PO, second assay, Table D, vehicle 19.25

Row | Structure (SMILES) | IC50 (GPR6) | IC50 (GPR6:Gsα-Fusion Protein; [2]) | Cumulative Food Intake (g) (8 hr post administration) ([1]; 100 μmol/kg PO, Table C, vehicle 14.5) | Body Weight Gain (g) (6 hr post administration) ([1]; 100 μmol/kg PO, Table C, vehicle 20.3) | Cumulative Water Intake (g) (6 hr post administration) ([1]; 100 μmol/kg PO, Table C, vehicle 22.9) | Cumulative Food Intake (g) (8 hr post administration) [1, 3] | Body Weight Gain (g) (6 hr post administration) [1, 4] | Cumulative Water Intake (g) (6 hr post administration) [1, 5] | IC50 (GPR6:Gsα-Fusion Protein; [6]) | Cumulative Food Intake (g) (8 hr post administration) [1, 7] | Body Weight Gain (g) (6 hr post administration) [1, 8] | Cumulative Water Intake (g) (6 hr post administration) [1, 8] | food intake every two hours ([1]; 100 μmol/kg oral, over eight hour period post-administration (FIG. 10A), vehicle about 2 to 2.5 grams) | water drunk (FIG. 10B) ([1]; 100 μmol/kg oral) | body weight gain (FIG. 10C) ([1]; 100 μmol/kg oral)
1 | O=C(N=C1SSC2=NCCN21)c1ccccc1 [ARE114, N-(5,6-dihydro-3H-imidazo[2,1-c]-1,2,4-dithiazol-3-ylidene)-benzamide] | 170 nM | 440 nM | 10.8 g | 13.6 g | 15.3 g | 8.68 g | 6.18 g | 10.6 g |  |  |  |  |  |  | 
2 | O=C(NC(=S)N1CCNC1=S)c1ccc2ccccc2c1 [ARE135, N-(2-thioxo-imidazolidine-1-carbothioyl)-naphthyl-2-carboxamide] | 710 nM | 100000 nM |  |  |  |  |  |  | 100000 nM | 13.5 g | 19.5 g | 19.5 g | about 2.5 grams | about 19 grams | about 19.5 grams
3 | O=C(N=C1SSC2=NCCN21)c1cc2ccccc2s1 [ARE140, N-(5,6-dihydro-3H-imidazo[2,1-c]-1,2,4-dithiazol-3-ylidene)-benzothiophen-2-carboxamide] | 190 nM | 130 nM |  |  |  |  |  |  | 170 nM | 9.6 g | 14.6 g | 20.0 g |  | about 19 grams | 14 grams
4 | O=C(N=C1SSC2=NCCN21)c1ccc(Cl)cc1 [ARE120, N-(5,6-dihydro-3H-imidazo[2,1-c]-1,2,4-dithiazol-3-ylidene)-4-chlorobenzamide] | 270 nM | 640 nM |  |  |  | 9.88 g | 11.4 g | 18.5 g |  |  |  |  |  |  | 
